The results in this text go back to publication PMC10064330, “Reversible Dual-Covalent Molecular Locking of the 14-3-3/ERRγ Protein–Protein Interaction as a Molecular Glue Drug Discovery Approach” (Journal of the American Chemical Society, 2023).

In assay [1] the target is T1, 14-3-3γ/ERRγ complex (Homo sapiens, UniProt P61981+P62508).
T1 construct: made in house; host or cells: E. coli NiCo21 (DE3)
The experiment in a line: Peptide washout experiment on immobilized 14-3-3γ/ERRγ complex. Type of assay: binding. The note with it: 100 μM compound; for total recovered ERRγ peptide: 5 washing steps of 20 min, normalized to recovery without 14-3-3γ; for initial peptide recovery: first washing step (DMSO 63%). Here is the method:
Next, a washout experiment was performed to understand ternary 14-3-3/ERRγ/molecular lock complex dissociation. Fluorescein-labeled ERRγ was incubated overnight with biotin-functionalized 14-3-3γ in the presence of either DMSO, disulfide 1, aldehyde 3, or molecular lock 5 and subsequently immobilized on streptavidin-functionalized magnetic beads (Figure S17a). The beads were then washed five times in a peptide and compound-free buffer. During each wash step, the beads were incubated in the buffer for 20 min to allow dissociation of the ERRγ peptide from the immobilized 14-3-3γ. The fluorescence was then measured for all samples before capture, after capture, and after each washing step (Figure S17b), and the amount of peptide recovery was calculated. […] The analysis of individual washing steps provided further insight into the ternary complex dissociation kinetics (Figure 3e).
Figure S17. Washout experiment. (a) Schematic representation of washout experiment. Biotinylated 14-3-3γ (5 µM), fluorescein-labelled ERRγ 9-mer peptide (200 nM) and dual-reactive molecular lock 5 were preincubated overnight to form a ternary ‘crosslinked’ complex. This complex was immobilized on streptavidin-functionalized magnetic beads. Complex-functionalized beads were subsequently washed […] with 50 µL buffer. For each wash step, the complex was incubated 20 minutes in the buffer before removal to allow dissociation of the ERRγ peptide from the ternary complex. From samples before and after capturing, and from all wash fractions, we have measured the fluorescence to determine the amount of ERR γ peptide in each fraction. (b) Fluorescence signal of fluorescein-labelled ERRγ peptide after washout experiment. Samples are present for FAM - ERRγ incubated with and without biotinylated 14 -3-3γ and in presence of either DMSO (negative control), disulfide compound 1, aldehyde compound 3 or dual-reactive compound 5. Fluorescence was measured from samples before and after capturing and from all wash fractions. (c) % recovery of FAM -ERRγ in each wash fraction of washout experiment. Percentage is obtained by dividing the fluorescence of each sample (see panel a) by the fluorescence signal obtained before capturing (input sample = 100% , see panel a). […]
steps in presence of DMSO, or 100 µM compound 1, 3 or 5. Values are calculated by dividing the fluorescence signal (from panel a) of samples with 14-3-3 with the fluorescence signal of samples without 14-3-3, to correct for non-specific binding of peptide to the magnetic beads. […]
(§1) temperatures are based on three independent experiments from which the average and standard deviations were determined using excel. […]

In assay [2] the target is T1, 14-3-3γ/ERRγ complex. Description: Time-dependent fluorescence anisotropy (TD-FA) of ternary complex formation. It counts as binding. The procedure: Time-dependent fluorescence anisotropy (TD-FA) measurements provided insights in the kinetics of ternary complex (14-3-3/ERRγ/lock) formation (Figures S2 and S3). All fragments reached saturation by ∼12 h. […] Carboxamides 4–6 and 8–10 reached saturation within 5 h.
TD-FA experiments were also performed at different pH values to study ternary complex (14-3-3γ/ERRγ/compound) formation and the importance of the imine bond in the molecular lock (Figure 3b,c and Figures S14–S16). […] Similarly, the avidity of the 14-3-3/ERRγ/1 complex at equilibrium was not affected by pH (Figure 3b). In contrast, 5 and 10 elicited an inverse relationship between pH and KD^app (Figure 3c and Figure S14), connected to impaired imine bond formation at low pH.
In contrast, the formation of the ternary complexes of 14-3-3γ/ERRγ/compound with 1, 5, and 10 was time-dependent and pH-responsive (Figure 3b,c and Figures S15 and S16). […] At pH 6.5, the kinetics of disulfide bond formation was 50% slower. For instance, at pH 6.5, the maximum effect of 1 was reached after a 4.2 h incubation, compared to 1.7–0.8 h for pH 7.0–8.0 (Figure S16g). […] Effective disulfide formation thus appeared to aid in the imine bond formation of the dual-covalent locks. Combining the two reactive handles increased the effective molar concentration of the lock within the binding pocket, illustrating the need for dual reactivity and leading to enhanced 14-3-3/ERRγ avidity.
Figure S2. Time resolved fluorescence anisotropy screen. Time dependent results of 14-3-3γ titration to 10 nM fluorescein-labelled ERRγ peptide in presence of 100 µM compound 1-10 (or DMSO as negative control).
Fluorescence anisotropy was measured every 15 minutes for the first 2 hours after which it was measured every hour for 15 hours. The plate was measured one more time after 24 hours incubation.
(1 picture or pasted object on this page, not shown here)
Figure S3. Time-dependent FA-based apparent Kd analysis. Determined apparent K from fluorescence […]
anisotropy binding curves (see figure S1) and plotted over time (top row) for all compounds in this study to show a time dependent decrease in KD (increase in affinity) between 14-3-3γ and ERRγ as induced by the compounds.
Bottom graphs show the normalized version of the top graphs where the KD at t=0h was set to no effect (0%) and […]
Figure S16. Time- and pH dependent FA-based apparent K analysis. (a-c) Determined apparent K from […]
fluorescence anisotropy binding curves (see figure S15) and plotted over time for compounds 1, 5 and 10. Results show a time dependent decrease in KD (increase in affinity) between 14-3-3γ and ERRγ as induced by the compounds over time. […]
as §1

T1 sequence (P61981 whole entry, other chains not shown): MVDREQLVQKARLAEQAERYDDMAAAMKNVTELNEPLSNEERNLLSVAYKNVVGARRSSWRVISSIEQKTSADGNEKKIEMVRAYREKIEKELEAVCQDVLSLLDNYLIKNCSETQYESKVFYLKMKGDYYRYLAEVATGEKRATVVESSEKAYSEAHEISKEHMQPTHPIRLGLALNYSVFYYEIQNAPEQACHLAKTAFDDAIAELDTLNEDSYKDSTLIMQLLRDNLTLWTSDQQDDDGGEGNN

For `CN(C)CCSSCCN(C)C(=O)c1cccc(F)c1` [compound 1, reference compound], in assay [1], the “total recovered ERRγ peptide” value is on record as 58% and the initial peptide recovery was 42%. In addition, in assay [2] (100 μM compound, TD-FA), the “binding kinetics” value is recorded as “significantly slower binding kinetics than molecular locks 4–10”. Besides, the “incubation time to reach maximum effect” value in assay [2] (pH 6.5, 100 μM compound) stood at 4.2 h.

Regarding `CN(C)CCSSCCN(C)C(=O)c1ccc(C=O)c(F)c1` [compound 5], in assay [1], the “total recovered ERRγ peptide” value is reported as 44% and the initial peptide recovery is reported as 36%. Further, in assay [2] (100 μM compound, TD-FA), the “binding kinetics” value was “fastest reaction kinetics” and the “time to saturation of ternary complex formation” value worked out at 2 h.
